Assay results as given in ChEMBL document CHEMBL3297697, “Property- and structure-guided discovery of a tetrahydroindazole series of interleukin-2 inducible T-cell kinase inhibitors” (J Med Chem, 2014).
Converted amounts (≈) assume the structure as drawn.

Experiments:
[1] = Apparent permeability across MDCK cells; type: ADME, cell-based, Canis lupus familiaris; settings: dog
Aurora kinase A = target: T1, Aurora kinase A (Homo sapiens, UniProt O14965)
T1 sequence (O14965 whole entry): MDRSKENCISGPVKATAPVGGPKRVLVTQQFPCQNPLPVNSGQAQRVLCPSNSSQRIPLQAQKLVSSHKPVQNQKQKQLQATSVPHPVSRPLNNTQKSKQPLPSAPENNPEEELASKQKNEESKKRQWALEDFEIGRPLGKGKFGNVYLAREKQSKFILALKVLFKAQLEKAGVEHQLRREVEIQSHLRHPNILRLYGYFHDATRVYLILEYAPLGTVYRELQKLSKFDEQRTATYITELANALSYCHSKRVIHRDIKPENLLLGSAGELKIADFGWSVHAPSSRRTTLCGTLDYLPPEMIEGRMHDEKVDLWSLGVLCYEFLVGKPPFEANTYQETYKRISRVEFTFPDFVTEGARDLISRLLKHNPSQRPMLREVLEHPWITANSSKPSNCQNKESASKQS

physchem [2] = settings: 1-octanol/phosphate buffer, pH 7.4, logD
physchem [3] = settings: PBS buffer, pH 7.4, Kinetic_solubility
[4] = buffer, pH 7.4, 24 h, 10000 µM
[5] = octanol/water, pH 7.4, 20 min, 10000 µM
Homo sapiens = species on record: Homo sapiens; assay: Selectivity ratio of Ki for human His-tagged full length AURKAto Ki for GST-tagged full length ITK (unknown origin)
[6] = target: T2, Tyrosine-protein kinase ITK/TSK (Homo sapiens, UniProt Q08881)
T2 sequence (Q08881 whole entry): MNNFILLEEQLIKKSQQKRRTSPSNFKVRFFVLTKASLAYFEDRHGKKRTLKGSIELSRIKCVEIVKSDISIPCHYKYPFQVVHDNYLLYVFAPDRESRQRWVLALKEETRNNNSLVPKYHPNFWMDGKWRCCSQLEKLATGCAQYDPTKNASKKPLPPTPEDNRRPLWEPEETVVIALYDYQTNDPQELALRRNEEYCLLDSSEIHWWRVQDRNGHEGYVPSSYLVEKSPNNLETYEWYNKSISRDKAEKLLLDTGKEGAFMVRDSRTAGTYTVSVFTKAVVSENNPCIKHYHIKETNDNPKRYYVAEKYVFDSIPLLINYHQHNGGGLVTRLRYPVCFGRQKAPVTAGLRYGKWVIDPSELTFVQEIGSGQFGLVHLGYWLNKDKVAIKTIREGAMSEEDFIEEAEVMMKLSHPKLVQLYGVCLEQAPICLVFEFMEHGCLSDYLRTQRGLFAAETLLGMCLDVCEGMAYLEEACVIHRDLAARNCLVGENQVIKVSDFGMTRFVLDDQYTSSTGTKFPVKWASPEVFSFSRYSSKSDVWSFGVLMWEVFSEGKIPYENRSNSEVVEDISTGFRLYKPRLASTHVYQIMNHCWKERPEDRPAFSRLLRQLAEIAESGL

[7] = target: T2, Tyrosine-protein kinase ITK/TSK; remark: listed apart in the source
[8] = Plasma protein binding in human; type: ADME, cell-free; settings: read-out: PPB (converted)

SMILES | Ki (Aurora kinase A) [nM] | logD at 20 min, 10000 µM (physchem [2]) | solubility kinetic at 24 h, 10000 µM (physchem [3]) [µM] | other results
CN(C)C[C@@H](c1ccccc1)n1cc(NC(=O)c2n[nH]c3c2CCC(C)(C)C3)cn1 | 210 | 2.7 | 42 (≈ 17.1 µg/mL) | Papp [1]: 8.1 ×10⁻⁶ cm/s
O=C(Nc1cnn(Cc2ccccc2)c1)c1n[nH]c2c1CC1CC1C2 (racemic) | 2000 | – | 13 (≈ 4.33 µg/mL) | logD [5]: 2.5
CC1(CO)CCc2c(C(=O)Nc3cnn(Cc4ccccc4)c3)n[nH]c2C1 (centres undefined) | 200 | – | – | logD [5]: 2.7; Kinetic_solubility [4]: 83 µM
N#Cc1cccc(Cn2cc(NC(=O)c3n[nH]c4cc(-c5cn[nH]c5)ccc34)cn2)c1 | – | 3.4 | < 1 | Papp [1]: 0.1 ×10⁻⁶ cm/s
CC1(C)CCc2c(C(=O)Nc3cnn([C@H](c4ccccc4)C4CCNCC4)c3)n[nH]c2C1 | 19 | 1.3 | 102 (≈ 44.1 µg/mL) | Papp [1]: 0.1 ×10⁻⁶ cm/s
CC1CCc2c(C(=O)Nc3cnn(Cc4ccccc4)c3)n[nH]c2C1 (centres undefined) | 520 | – | – | –
O=C(Nc1cnn(Cc2ccccc2)c1)c1n[nH]c2c1CCC1(CC1)C2 | 180 | 3.9 | < 1 | –
N#Cc1cccc(Cn2cc(NC(=O)c3n[nH]c4c3CC(c3cn[nH]c3)CC4)cn2)c1 (racemic) [listing 1 of 2 here] | 210 | – | < 1 | Ki [6]: 8.3 nM; logD [5]: 2.5; IC50 [7]: 1700 nM
O=C(Nc1cnn(Cc2ccccc2)c1)c1n[nH]c2c1CCC1(COC1)C2 | 2900 | 2.4 | 78 (≈ 28.3 µg/mL) | –
CC1(C)CCc2[nH]nc(C(=O)Nc3cnn(Cc4ccccc4)c3)c2C1 | 1700 | 4.3 | < 1 | –
CC1(C)CCc2c(C(=O)Nc3cnn(Cc4ccccc4)c3)n[nH]c2C1 | 480 | 4.3 | < 1 | Papp [1]: 7.6 ×10⁻⁶ cm/s
COC1(C)CCc2c(C(=O)Nc3cnn(Cc4ccccc4)c3)n[nH]c2C1 (racemic) | – | 2.2 | – | Kinetic_solubility [4]: 77 µM
O=C(Nc1cnn(Cc2ccccc2)c1)c1n[nH]c2c1CCC1(CCOC1)C2 (centres undefined) | – | – | – | Kinetic_solubility [4]: 60 µM
CN(C)CC[C@H](c1ccccc1)n1cc(NC(=O)c2n[nH]c3c2CCC(C)(C)C3)cn1 | – | 2 | 49 (≈ 20.6 µg/mL) | –
N#Cc1cccc(Cn2cc(NC(=O)c3n[nH]c4c3CC(c3cn[nH]c3)CC4)cn2)c1 (racemic) [listing 2 of 2 here] | – | – | – | Ratio Ki (Homo sapiens): 25
CC12Cc3[nH]nc(C(=O)Nc4cnn(Cc5ccccc5)c4)c3CC1C2 (racemic) | 440 | 3.8 | 1.3 (≈ 0.452 µg/mL) | –
CN(C)CC[C@@H](c1ccccc1)n1cc(NC(=O)c2n[nH]c3cc(-c4cn[nH]c4)ccc23)cn1 | 15 | – | 94 (≈ 42.7 µg/mL) | fraction unbound [8]: 0.03
CC1(C)CCc2c(C(=O)Nc3cnn([C@@H](CCS(C)(=O)=O)c4ccccc4)c3)n[nH]c2C1 | 2100 | 2.5 | 14 (≈ 6.38 µg/mL) | Ratio Ki (Homo sapiens): 340; Ki [6]: 6.2 nM; Papp [1]: 3.2 ×10⁻⁶ cm/s; IC50 [7]: 310 nM
O=C(Nc1cnn(Cc2ccccc2)c1)c1n[nH]c2c1CCC1(CCOC1)C2 (racemic) | > 5700 | 2.2 | – | Kinetic_solubility [4]: 20 µM
N#Cc1cccc(Cn2cc(NC(=O)c3n[nH]c4c3CC(c3cn[nH]c3)CC4)cn2)c1 (centres undefined) [listing 2 of 2 here] | – | – | – | Ratio Ki (Homo sapiens): 23
COC1(C)CCc2c(C(=O)Nc3cnn(Cc4ccccc4)c3)n[nH]c2C1 (centres undefined) | – | – | – | Kinetic_solubility [4]: 29 µM

Second part, led by results:

Ki (Aurora kinase A) [nM] | logD at 20 min, 10000 µM (physchem [2]) | solubility kinetic at 24 h, 10000 µM (physchem [3]) [µM] | SMILES | other results
870 | 2 | – | O=C(Nc1cnn(Cc2ccccc2)c1)c1n[nH]c2c1CC1CC1C2 (centres undefined) | Kinetic_solubility [4]: 18 µM
950 | 3.8 | < 1 | O=C(Nc1cnn(Cc2ccccc2)c1)c1n[nH]c2c1CCC(F)(F)C2 | –
870 | 3 | 5.8 (≈ 1.99 µg/mL) | N#Cc1cccc(Cn2cc(NC(=O)c3n[nH]c4ccccc34)cn2)c1 | Ratio Ki (Homo sapiens): 20; Ki [6]: 43 nM
220 | 2.4 | – | N#Cc1cccc(Cn2cc(NC(=O)c3n[nH]c4c3CC(c3cn[nH]c3)CC4)cn2)c1 (centres undefined) [listing 1 of 2 here] | Ki [6]: 9.4 nM; IC50 [7]: 2200 nM
2300 | 2.6 | 77 (≈ 28.1 µg/mL) | CC1(CO)CCc2c(C(=O)Nc3cnn(Cc4ccccc4)c3)n[nH]c2C1 (racemic) | –
780 | 2.6 | 14 (≈ 4.85 µg/mL) | N#Cc1cccc(Cn2cc(NC(=O)c3n[nH]c4c3CCCC4)cn2)c1 | Ratio Ki (Homo sapiens): 26
290 | 2.7 | 25 (≈ 11.4 µg/mL) | CN(C)CC[C@@H](c1cccc(Cl)c1)n1cc(NC(=O)c2n[nH]c3c2CCC(C)(C)C3)cn1 | –
54 | – | – | CC12Cc3[nH]nc(C(=O)Nc4cnn(Cc5ccccc5)c4)c3CC1C2 (centres undefined) | Kinetic_solubility [4]: 1.6 µM
500 | 2.4 | 72 (≈ 31.3 µg/mL) | Cc1cccc([C@H](CCN(C)C)n2cc(NC(=O)c3n[nH]c4c3CCC(C)(C)C4)cn2)c1 | Papp [1]: 4.3 ×10⁻⁶ cm/s
1100 | 4 | < 1 | CC1CCc2c(C(=O)Nc3cnn(Cc4ccccc4)c3)n[nH]c2C1 (racemic) | –
